Tested on: HEK293T cells
Assay: Cell fractionation: distribution of RHO GTPases
Assay type: cell-based
Conditions: 10 μM
Method: centrifugation for 20 min in 20000 x g, supernatants were collected and loaded on a Ni-NTA column (Qiagen, Hilden, Germany). The protein was eluted by passing a buffer containing 300 mM imidazole into the Ni-NTA column. The eluted solution was further purified on an analytical Superdex 75 column (10/300 GL, GE-Healthcare, Uppsala, Sweden) using 20 mM HEPES-NaOH pH 7.4, 150 mM NaCl, 3 mM DTT, 5 mM MgCl2 and 0.5% (w/v) Na-cholate as buffer system. Non-prenylated RAC1 and human RHOGDI1 were prepared from E. coli as a GST recombinant protein as described previously.6
For expression of GST-PDEδ, E. coli RosettaTM2 cells transformed with PDE6D expression plasmid (pGex4T5) were inoculated in TB medium containing 100 μg/ml ampicillin and 30 μg/ml chloramphenicol to a total volume of 10 L. The protein expression in E. coli was induced with 0.2 mM IPTG at OD600 = 1.33. Cells were cultivated overnight at 18 ° C with shaking.
Cells then were pelleted by centrifugation at 4000xg for 20 min at 4 ° C and stored at -20 ° C. […]
NIH/3T3 cells were seeded in a 96 plate (10,000 cell per well/ plate name: Essen Bioscience NO 4379). […] Cell migration was monitored using IncuCyte ZOOM for a period of 48 h. The images were analyzed by the Incucyte Scratch Wound Analysis Software. […]

## COC(=O)C1(C(CC(=O)c2cccnc2)c2ccccc2)N=C(c2ccc(Br)cc2)C2C(=O)N(C)C(=O)C21 (stereo not shown) [7l]
  Subcellular localization of membrane-bound RHO GTPases (in words): from the plasma membrane to the endoplasmic reticulum (ER) membrane

Source: paper PMC9313812, “The Pseudo‐Natural Product Rhonin Targets RHOGDI” (Angewandte Chemie (International Ed. in English), 2022)
